Values of other authors in patent publication US12551521B2, “Compositions including pine bark extract, berryfruit extract and a source of l-theanine and uses thereof” (AREPA IP LIMITED, priority 2017, dated 2026).

Conditions: in vivo

## CCNC(=O)CC[C@H](N)C(=O)O [L-theanine, γ-glutamylethylamide]
  blood-brain barrier crossing: known to cross the blood-brain barrier
